# Data: patent publication US20210401826A1, “ABUSE DETERRENT PHARMACEUTICAL FORMULATIONS” (AVEKSHAN, LLC., priority 2018, published 2021)
# Values joined by “and” are separate entries in the source; they are usually repeats but may differ in a detail not shown here. Identical values can stand only once. Counter-ions that a name gives are not always drawn. Like-named read-outs stand apart in the source and are kept apart here.
# What was measured:
# [1] = Solubility study of naltrexone and methylphenidate in common solvents and household items (visual examination); type: physicochemical
# Experimental: The solubility of naltrexone and methylphenidate was evaluated in various commonly available solvents and household items, including water, cola soft drinks, ethanol, vinegar, nail polish remover, toluene, turpentine, and baking soda solution (see Table 1). The solubility results were determined by visual examination of each solution after warming and several hours of mixing. The solubility results are presented below in Table 1.
# [2] = Separation of naltrexone and methylphenidate from a 1:1 mixture using acetone; type: physicochemical; conditions: for % NTX / MPH Recovered / NTX / MPH / mg NTX / MPH Recovered: Prep. A and B
# Experimental: In this example, equal amounts of methylphenidate and naltrexone (20 mg each) were combined and then separated. To separate the methylphenidate from the naltrexone, only materials representing commonly available household items were used, e.g., acetone (nail polish remover), water, small glass containers, a hot plate and a coffee filter. Three sources of acetone were used, all of which are available to the public, including lab grade acetone, nail polish remover, and acetone heavy-duty cleaner.
# Conditions for the separation, such as acetone volume and extraction time, were tested and adjusted.
# [3] = 0.2% baking soda solution, aqueous buffer, thermodynamic from solid, read-out: Solubility
# [4] = 25:75 acetone:water, aqueous with cosolvent or surfactant or cyclodextrin, thermodynamic from solid, 25:75 Acetone:H2O, read-out: Solubility
# [5] = 40% ethanol, aqueous with cosolvent or surfactant or cyclodextrin, thermodynamic from solid, read-out: Solubility
# [6] = 50:50 acetone:water, aqueous with cosolvent or surfactant or cyclodextrin, thermodynamic from solid, 50:50 Acetone:H2O, read-out: Solubility
# [7] = Coca-Cola, aqueous buffer, thermodynamic from solid, read-out: Solubility
# [8] = DMF, organic solvent or mixture, thermodynamic from solid, read-out: Solubility
# [9] = DMSO, organic solvent or mixture, thermodynamic from solid, read-out: Solubility
# [10] = acetone, organic solvent or mixture, thermodynamic from solid, read-out: Solubility
# [11] = acetonitrile, organic solvent or mixture, thermodynamic from solid, read-out: Solubility
# [12] = aqueous buffer, thermodynamic from solid, 0.1M Sodium Hydroxide, read-out: Solubility
# [13] = canola oil, oil or lipid, thermodynamic from solid, read-out: Solubility
# [14] = ethanol, organic solvent or mixture, thermodynamic from solid, read-out: Solubility
# [15] = ethyl acetate, organic solvent or mixture, thermodynamic from solid, read-out: Solubility
# [16] = hexanes, organic solvent or mixture, thermodynamic from solid, read-out: Solubility
# [17] = isopropyl alcohol, organic solvent or mixture, thermodynamic from solid, read-out: Solubility
# [18] = methanol, organic solvent or mixture, thermodynamic from solid, read-out: Solubility
# [19] = methyl ethyl ketone, organic solvent or mixture, thermodynamic from solid, read-out: Solubility
# [20] = mineral spirits, organic solvent or mixture, thermodynamic from solid, read-out: Solubility
# [21] = naphtha, organic solvent or mixture, thermodynamic from solid, read-out: Solubility
# [22] = simulated gastric fluid, thermodynamic from solid, 0.1M Hydrochloric Acid, read-out: Solubility
# [23] = toluene, organic solvent or mixture, thermodynamic from solid, read-out: Solubility
# [24] = turpentine, organic solvent or mixture, thermodynamic from solid, read-out: Solubility
# [25] = vinegar, aqueous buffer, thermodynamic from solid, read-out: Solubility
# [26] = water, thermodynamic from solid, read-out: Solubility
# [27] = xylene, organic solvent or mixture, thermodynamic from solid, read-out: Solubility
# [28] = Acetone Cleaner 20 mL, listed as NTX, HCl
# [29] = Acetone Cleaner 50 mL, listed as NTX, HCl
# [30] = Lab Grade Acetone 20 mL, listed as NTX, HCl
# [31] = Nail Polish Remover 20 mL, listed as NTX, HCl
# [32] = Nail Polish Remover 50 mL, listed as NTX, HCl
# [33] = Acetone Cleaner 20 mL, listed as MPH, HCl
# [34] = Lab Grade Acetone 20 mL, listed as MPH, HCl
# [35] = Lab Grade Acetone 50 mL, listed as MPH, HCl
# [36] = Nail Polish Remover 20 mL, listed as MPH, HCl
# [37] = Nail Polish Remover 50 mL, listed as MPH, HCl
compound,measurement,setting,value
O=C1CC[C@@]2(O)[C@H]3Cc4ccc(O)c5c4[C@@]2(CCN3CC2CC2)[C@H]1O5 [Naltrexone HCl],solubility,[1]; [3],> 1 mg/mL
same,solubility,[1]; [4],> 1 mg/mL
same,solubility,[1]; [5],> 1 mg/mL
same,solubility,[1]; [6],> 1 mg/mL
same,solubility,"[1]; Acetone, HCl",<0.1 mg/mL
same,solubility,[1]; [7],> 1 mg/mL
same,solubility,[1]; [8],> 1 mg/mL
same,solubility,[1]; [9],> 1 mg/mL
same,solubility,[1]; [10],< 0.1 mg/mL
same,solubility,[1]; [11],0.1 to 0.5 mg/mL
same,solubility,[1]; [12],> 1 mg/mL
same,solubility,[1]; [13],< 0.1 mg/mL
same,solubility,[1]; [14],> 1 mg/mL
same,solubility,[1]; [15],< 0.1 mg/mL
same,solubility,[1]; [16],< 0.1 mg/mL
same,solubility,[1]; [17],< 0.1 mg/mL
same,solubility,[1]; [18],> 1 mg/mL
same,solubility,[1]; [19],< 0.1 mg/mL
same,solubility,[1]; [20],< 0.1 mg/mL
same,solubility,[1]; [21],< 0.1 mg/mL
same,solubility,[1]; [22],> 1 mg/mL
same,solubility,[1]; [23],< 0.1 mg/mL
same,solubility,[1]; [24],< 0.1 mg/mL
same,solubility,[1]; [25],> 1 mg/mL
same,solubility,[1]; [26],> 1 mg/mL
same,solubility,[1]; [27],< 0.1 mg/mL
same,% NTX / MPH Recovered,[2]; [28],5.1% and 8.5%
same,NTX / MPH,[2]; [28],0.05 mg/mL and 0.09 mg/mL
same,mg NTX / MPH Recovered,[2]; [28],1.02 mg and 1.7 mg
same,NTX / MPH,[2]; Acetone Cleaner 50 mL,0.13 mg/mL
same,% NTX / MPH Recovered,[2]; [29],13.4% and 12.5%
same,mg NTX / MPH Recovered,[2]; [29],2.68 mg and 2.5 mg
same,% NTX / MPH Recovered,[2]; [30],5.2% and 6.5%
same,NTX / MPH,[2]; [30],0.05 mg/mL and 0.06 mg/mL
same,mg NTX / MPH Recovered,[2]; [30],1.04 mg and 1.3 mg
same,% NTX / MPH Recovered,[2]; [31],5.6% and 8.6%
same,NTX / MPH,[2]; [31],0.06 mg/mL and 0.09 mg/mL
same,mg NTX / MPH Recovered,[2]; [31],1.12 mg and 1.72 mg
same,NTX / MPH,"[2]; Nail Polish Remover 50 mL, 20 mg each drug combined, listed as NTX, HCl",0.14 mg/mL and 0.15 mg/mL
same,% NTX / MPH Recovered,[2]; [32],13.8% and 15.4%
same,mg NTX / MPH Recovered,[2]; [32],2.76 mg and 3.08 mg
COC(=O)C(c1ccccc1)C1CCCCN1 (stereo not drawn) [Methylphenidate HCl],solubility,[1]; [3],> 1 mg/mL
same,solubility,[1]; [4],> 1 mg/mL
same,solubility,[1]; [5],> 1 mg/mL
same,solubility,[1]; [6],> 1 mg/mL
same,solubility,"[1]; Acetone, HCl",>1.0 mg/mL
same,solubility,[1]; [7],> 1 mg/mL
same,solubility,[1]; [8],> 1 mg/mL
same,solubility,[1]; [9],> 1 mg/mL
same,solubility,[1]; [10],> 1 mg/mL
same,solubility,[1]; [11],> 1 mg/mL
same,solubility,[1]; [12],> 1 mg/mL
same,solubility,[1]; [13],< 0.1 mg/mL
same,solubility,[1]; [14],> 1 mg/mL
same,solubility,[1]; [15],0.1 to 0.5 mg/mL
same,solubility,[1]; [16],0.1 to 0.5 mg/mL
same,solubility,[1]; [17],> 1 mg/mL
same,solubility,[1]; [18],> 1 mg/mL
same,solubility,[1]; [19],0.5 to 1 mg/mL
same,solubility,[1]; [20],< 0.1 mg/mL
same,solubility,[1]; [21],< 0.1 mg/mL
same,solubility,[1]; [22],> 1 mg/mL
same,solubility,[1]; [23],< 0.1 mg/mL
same,solubility,[1]; [24],< 0.1 mg/mL
same,solubility,[1]; [25],> 1 mg/mL
same,solubility,[1]; [26],> 1 mg/mL
same,solubility,[1]; [27],< 0.1 mg/mL
same,mg NTX / MPH Recovered,[2]; Acetone Cleaner 20 mL,15.9 mg
same,% NTX / MPH Recovered,[2]; [33],79.5% and 79.7%
same,NTX / MPH,[2]; [33],0.79 mg/mL and 0.80 mg/mL
same,NTX / MPH,[2]; Acetone Cleaner 50 mL,0.92 mg/mL
same,mg NTX / MPH Recovered,[2]; Acetone Cleaner 50 mL,18.4 mg
same,% NTX / MPH Recovered,"[2]; Acetone Cleaner 50 mL, listed as MPH, HCl",92.0% and 91.8%
same,% NTX / MPH Recovered,[2]; [34],76.4% and 73.7%
same,NTX / MPH,[2]; [34],0.76 mg/mL and 0.74 mg/mL
same,mg NTX / MPH Recovered,[2]; [34],15.3 mg and 14.7 mg
same,% NTX / MPH Recovered,[2]; [35],91.5% and 92.4%
same,NTX / MPH,[2]; [35],0.91 mg/mL and 0.92 mg/mL
same,mg NTX / MPH Recovered,[2]; [35],18.3 mg and 18.5 mg
same,mg NTX / MPH Recovered,[2]; Nail Polish Remover 20 mL,14.6 mg
same,% NTX / MPH Recovered,[2]; [36],73.0% and 79.4%
same,NTX / MPH,[2]; [36],0.73 mg/mL and 0.79 mg/mL
same,mg NTX / MPH Recovered,[2]; [36],15.9 mg
same,NTX / MPH,"[2]; Nail Polish Remover 50 mL, 20 mg each drug combined, listed as MPH, HCl",0.91 mg/mL and 0.90 mg/mL
same,% NTX / MPH Recovered,[2]; [37],91.4% and 90.1%
same,mg NTX / MPH Recovered,[2]; [37],18.3 mg and 18.0 mg
same,% of methylphenidate extracted,[2]; depending on the volume of acetone used,73-92%
